Source: patent US12486240B2, “Oxadiazole compounds for controlling or preventing phytopathogenic fungi” (PI INDUSTRIES LTD., priority 2019, dated 2025)

What was measured:
Rhizoctonia solani = Rhizoctonia solani mycelial radial growth test on potato dextrose agar; format: cell-based; settings: 300 ppm, 25° C., 60% relative humidity, seven days
Phakopsora pachyrhizi = Phakopsora pachyrhizi test on soybean (preventive spray); format: in vivo; settings: preventive spray on soybean plants, inoculated one day after treatment, rated 3, 7, 10 and 15 days after application, read-out: Efficacy (% control) from disease severity rating versus untreated control
Method: Example 5: Phakopsora pachyrhizi Test on Soybean Compounds were dissolved in 2% dimethyl sulfoxide/acetone and then mixed with water containing an emulsifier to a calibrated spray volume of 50 mL. This 50 mL spray solution was poured into spray bottles for further applications. To test the preventive activity of compounds, healthy young Soybean plants raised in the greenhouse were sprayed with the active compound preparation at the stated application rates inside the spray cabinets using hollow cone nozzles. One day after treatment, the plants were inoculated with a spore suspension containing 2×10^5 Phakopsora pachyrhizi conidia. The inoculated plants were then kept in a greenhouse chamber at 22-24° C. temperature and 80-90% relative humidity for disease expression. A visual assessment of the compound's performance was carried out by rating the disease severity (0-100% scale) on treated plants 3, 7, 10 and 15 days after application. Efficacy (% control) of the compounds was calculated by comparing the disease rating in the treatment with the one of the untreated control. The sprayed plants were also assessed for plant compatibility by recording symptoms like necrosis, chlorosis and stunting.

Botrytis cinerea = Botrytis cinerea mycelial radial growth test on potato dextrose agar; format: cell-based; settings: 300 ppm, 22° C., 90% relative humidity, seven days

Compound	control (radial growth compared to untreated control) (Rhizoctonia solani) [%]	pest or weed control at 500 ppm (Phakopsora pachyrhizi) [%]	control (radial growth compared to untreated control) (Botrytis cinerea) [%]
CCN(C)c1c(Nc2ccc(-c3noc(C(F)(F)F)n3)cc2)c(=O)c1=O [Compound 3, 3-(ethyl(methyl)amino)-4-((4-(5-(trifluoromethyl)-1,2,4-oxadiazol-3-yl)phenyl)amino)cyclobut-3-ene-1,2-dione]	≥ 70	≥ 70	
COCCN(C)c1c(Nc2ccc(-c3noc(C(F)(F)F)n3)cc2)c(=O)c1=O [Compound 7, 3-((2-methoxyethyl)(methyl)amino)-4-((4-(5-(trifluoromethyl)-1,2,4-oxadiazol-3-yl)phenyl)amino)cyclobut-3-ene-1,2-dione]		≥ 70	≥ 70
CCN(C)c1c(N(C)Cc2ccc(-c3noc(C(F)(F)F)n3)cc2)c(=O)c1=O [Compound 53, 3-(ethyl(methyl)amino)-4-(methyl(4-(5-(trifluoromethyl)-1,2,4-oxadiazol-3-yl)benzyl)amino)cyclobut-3-ene-1,2-dione]		≥ 70	
COC1CCN(c2c(N(C)Cc3ccc(-c4noc(C(F)(F)F)n4)cc3)c(=O)c2=O)C1 (centres unmarked) [Compound 54, 3-(3-methoxypyrrolidin-1-yl)-4-(methyl(4-(5-(trifluoromethyl)-1,2,4-oxadiazol-3-yl)benzyl)amino)cyclobut-3-ene-1,2-dione]		≥ 70	
CN(Cc1ccc(-c2noc(C(F)(F)F)n2)cc1)c1c(N2CCC(F)C2)c(=O)c1=O (centres unmarked) [Compound 55, 3-(3-fluoropyrrolidin-1-yl)-4-(methyl(4-(5-(trifluoromethyl)-1,2,4-oxadiazol-3-yl)benzyl)amino)cyclobut-3-ene-1,2-dione]		≥ 70	
C=CCNc1c(N(C)Cc2ccc(-c3noc(C(F)(F)F)n3)cc2)c(=O)c1=O [Compound 56, 3-(allylamino)-4-(methyl(4-(5-(trifluoromethyl)-1,2,4-oxadiazol-3-yl)benzyl)amino)cyclobut-3-ene-1,2-dione]		≥ 70	
